Data published in US20190060384A1, “COMPOSITION FOR TREATMENT OR PREVENTION OF LUNG CANCER AND A METHOD THEREFORE” (priority 2017, published 2019).

Columns and labels:
[1] = mouse, in vivo, po
From the text: (§1) Day 28; mortality, clinical symptoms, change in body weight, autopsy findings, hematological (14 items; Table 18) and hematochemical (20 items; Table 19) changes, histopathological changes (23 organs: brain cerebrum, cerebellum and bulbar, heart, thymus, lung, testis, epididymis, kidney, adrenal gland, spleen, liver, pancreas, alimentary tract esophagus, fundic portion, pyloric portion, duodenum, jejunum, ileum, cecum, colon and rectum, submandibular lymph node), and changes in content of liver lipid peroxidation and antioxidant defense system glutathione (GSH), and catalase (CAT) and superoxide dismutase (SOD) activities.

[2] = mouse, in vivo, po; remark: listed apart in the source
From the text: as §1

[3] = mouse, in vivo, po; remark: listed apart in the source
From the text: as §1

[4] = male, ICR, mouse, in vivo, po, 28 days
From the text: as §1

[5] = male, ICR, mouse, in vivo, po, 28 days; remark: listed apart in the source
From the text: as §1

[6] = tested on: liver lipid peroxidation, GSH, CAT, SOD; details: mouse, in vivo, po
From the text: as §1

[7] = tested on: NCI-H520 cells; assay: MTT cytotoxicity (cell viability)
From the text: Further, in order to observe the effects on tumor-related cachexia, a change in periovarian fat pad weight and a change in serum IL-6 content were observed, the changes in thickness of periovarian fat pad and diameter of adipocytes were each histopathologically observed, and in a tumor mass formed, the immunoreactivities of cleaved caspase-3 and poly(ADPribose) polymerase (PARP) as apoptotic markers, nitrotyrosine (NT) as an inducible nitric oxide synthases (iNOS)-related oxidative stress marker, 4-hydroxynonenal (4-HNE) as a lipid peroxidation marker, CD-31 and Ki-67 as angiogenic and cell proliferation markers, cyclooxygenase-2 (COX-2) as an inflammatory and angiogenic factor, and iNOS and TNF-α as cytokines related to immune activity were each observed by avidin-biotin-peroxidase (ABC)-based immunohistochemical methods.

[8] = male, ICR (CrljOri:CD1[ICR]), 28 day

## COc1cc2ncnc(Nc3ccc(F)c(Cl)c3)c2cc1OCCCN1CCOCC1 [Gefitinib, gefitinib]
[1]; [8]
  Clinical signs: Any abnormal signs: 0/7 (0%)
  Clinical signs: Normal appearance: 7/7 (100%)
  Mortality, At termination (at end of 28 days of administration): 0
  Mortality, Total: 0/7 (0%)
[1]
  Body weight gain, Day 0~Day 14: 6.53 ± 0.65
  Body weight gain, Day 0~Day 28: 3.26 ± 0.57b
  Body weight gain, Day 14~Day 27: 1.80 ± 0.62
[2]
  BASO: 1.11 ± 0.21%
  EOS: 0.36 ± 0.24%
  HCT: 34.06 ± 2.18a %
  HGB: 14.87 ± 0.97a g/dl
  LYM: 90.22 ± 0.91c %
  MCH: 21.01 ± 1.93 pg
  MCHC: 42.31 ± 4.13 g/dL
  MCV: 49.81 ± 3.97 fL
  MONO: 3.59 ± 0.83a %
  NEU: 2.95 ± 0.87c %
  PLT: 760.00 ± 143.30 K/μL
  RBC: 6.30 ± 0.35c M/μL
  RET: 0.43 ± 0.37 ea/1000
  WBC: 7.50 ± 0.49e K/μL
[3]
  ALB: 1.39 ± 0.25a g/dL
  ALP: 107.00 ± 22.41 IU/L
  ALT: 215.00 ± 33.87d IU/L
  AST: 29.014 ± 23.57d IU/L
  BIL: 0.14 ± 0.05 mg/dL
  BUN: 18.19 ± 0.89 mg/dL
  CRE: 0.39 ± 0.18 mg/dL
  GLU: 92.43 ± 7.93 mg/dL
  Globulin: 3.73 ± 0.39a g/dL
  K: 9.97 ± 0.25 mmol/L
  PRO: 5.11 ± 0.19 g/dL
  TG: 195.71 ± 47.00 mg/dL
[4]
  Autopsy: Liver Discolorization: 7/7
  Autopsy: Liver Discolorization 1+: 0/7
  Autopsy: Liver Discolorization 2+: 1/7
  Autopsy: Liver Discolorization 3+: 6/7
  Autopsy: Liver Normal: 0/7
  Autopsy: Lung Congestion: 2/7
  Autopsy: Lung Congestion 1+: 2/7
  Autopsy: Lung Normal: 5/7
  Autopsy: Lymph nodes Hypertrophy: 7/7
  Autopsy: Lymph nodes Hypertrophy 1+: 0/7
  Autopsy: Lymph nodes Hypertrophy 2+: 4/7
  Autopsy: Lymph nodes Hypertrophy 3+: 3/7
  Autopsy: Lymph nodes Normal: 0/7
  Autopsy: Others Normal: 7/7
  Autopsy: Spleen Hypertrophy: 7/7
  Autopsy: Spleen Hypertrophy 1+: 0/7
  Autopsy: Spleen Hypertrophy 2+: 4/7
  Autopsy: Spleen Hypertrophy 3+: 3/7
  Autopsy: Spleen Normal: 0/7
[5]
  Histopathology: Fundus Normal: 5/7
  Histopathology: Fundus fCV 1+ (local cysts): 2/7
  Histopathology: Liver IF 1+ (inflammatory cell infiltration): 0/7
  Histopathology: Liver IF-FN 1+ (infiltration with local necrosis): 0/7
  Histopathology: Liver IF-FN 2+: 1/7
  Histopathology: Liver IF-FN 3+: 6/7
  Histopathology: Liver Normal: 0/7
  Histopathology: Lung CG 1+ (hyperemia): 1/7
  Histopathology: Lung Normal: 6/7
  Histopathology: Lymph nodes Normal: 0/7
  Histopathology: Lymph nodes dHP 1+ (diffused lymphocyte hyperplasia): 0/7
  Histopathology: Lymph nodes dHP 2+: 4/7
  Histopathology: Lymph nodes dHP 3+: 3/7
  Histopathology: Others Normal: 7/7
  Histopathology: Spleen Normal: 0/7
  Histopathology: Spleen rHP 1+ (red pulp lymphocyte hyperplasia): 0/7
  Histopathology: Spleen rHP 2+: 3/7
  Histopathology: Spleen rHP 3+: 4/7
[6]
  change in SOD activity in the liver tissue: −81.18%
  change in content of GSH in the liver tissue: −69.14%
  change in liver lipid peroxidation: 129.64%
[7]; gefitinib 0.001 μM
  change in the viability of NCI-H520 cells vs vehicle control: −3.29%
[7]; gefitinib 0.01 μM
  change in the viability of NCI-H520 cells vs vehicle control: −7.47%
[7]; gefitinib 0.1 μM
  change in the viability of NCI-H520 cells vs vehicle control: −17.73%
[7]; gefitinib 1 μM
  change in the viability of NCI-H520 cells vs vehicle control: −29.55%
[7]; gefitinib 5 μM
  change in the viability of NCI-H520 cells vs vehicle control: −53.53%
[7]; gefitinib 10 μM
  change in the viability of NCI-H520 cells vs vehicle control: −62.71%
[7]; gefitinib 50 μM
  change in the viability of NCI-H520 cells vs vehicle control: −71.11%
